Our source for the IC50 values is patent US8697739B2, “Bicyclic acetyl-CoA carboxylase inhibitors and uses thereof” (Novartis AG, priority 2010, dated 2014).

Molecules are shown by their SMILES.

Broadly, the IC50 is the concentration at which inhibition is half-maximal.

T1 sequence (O00763 144-2458): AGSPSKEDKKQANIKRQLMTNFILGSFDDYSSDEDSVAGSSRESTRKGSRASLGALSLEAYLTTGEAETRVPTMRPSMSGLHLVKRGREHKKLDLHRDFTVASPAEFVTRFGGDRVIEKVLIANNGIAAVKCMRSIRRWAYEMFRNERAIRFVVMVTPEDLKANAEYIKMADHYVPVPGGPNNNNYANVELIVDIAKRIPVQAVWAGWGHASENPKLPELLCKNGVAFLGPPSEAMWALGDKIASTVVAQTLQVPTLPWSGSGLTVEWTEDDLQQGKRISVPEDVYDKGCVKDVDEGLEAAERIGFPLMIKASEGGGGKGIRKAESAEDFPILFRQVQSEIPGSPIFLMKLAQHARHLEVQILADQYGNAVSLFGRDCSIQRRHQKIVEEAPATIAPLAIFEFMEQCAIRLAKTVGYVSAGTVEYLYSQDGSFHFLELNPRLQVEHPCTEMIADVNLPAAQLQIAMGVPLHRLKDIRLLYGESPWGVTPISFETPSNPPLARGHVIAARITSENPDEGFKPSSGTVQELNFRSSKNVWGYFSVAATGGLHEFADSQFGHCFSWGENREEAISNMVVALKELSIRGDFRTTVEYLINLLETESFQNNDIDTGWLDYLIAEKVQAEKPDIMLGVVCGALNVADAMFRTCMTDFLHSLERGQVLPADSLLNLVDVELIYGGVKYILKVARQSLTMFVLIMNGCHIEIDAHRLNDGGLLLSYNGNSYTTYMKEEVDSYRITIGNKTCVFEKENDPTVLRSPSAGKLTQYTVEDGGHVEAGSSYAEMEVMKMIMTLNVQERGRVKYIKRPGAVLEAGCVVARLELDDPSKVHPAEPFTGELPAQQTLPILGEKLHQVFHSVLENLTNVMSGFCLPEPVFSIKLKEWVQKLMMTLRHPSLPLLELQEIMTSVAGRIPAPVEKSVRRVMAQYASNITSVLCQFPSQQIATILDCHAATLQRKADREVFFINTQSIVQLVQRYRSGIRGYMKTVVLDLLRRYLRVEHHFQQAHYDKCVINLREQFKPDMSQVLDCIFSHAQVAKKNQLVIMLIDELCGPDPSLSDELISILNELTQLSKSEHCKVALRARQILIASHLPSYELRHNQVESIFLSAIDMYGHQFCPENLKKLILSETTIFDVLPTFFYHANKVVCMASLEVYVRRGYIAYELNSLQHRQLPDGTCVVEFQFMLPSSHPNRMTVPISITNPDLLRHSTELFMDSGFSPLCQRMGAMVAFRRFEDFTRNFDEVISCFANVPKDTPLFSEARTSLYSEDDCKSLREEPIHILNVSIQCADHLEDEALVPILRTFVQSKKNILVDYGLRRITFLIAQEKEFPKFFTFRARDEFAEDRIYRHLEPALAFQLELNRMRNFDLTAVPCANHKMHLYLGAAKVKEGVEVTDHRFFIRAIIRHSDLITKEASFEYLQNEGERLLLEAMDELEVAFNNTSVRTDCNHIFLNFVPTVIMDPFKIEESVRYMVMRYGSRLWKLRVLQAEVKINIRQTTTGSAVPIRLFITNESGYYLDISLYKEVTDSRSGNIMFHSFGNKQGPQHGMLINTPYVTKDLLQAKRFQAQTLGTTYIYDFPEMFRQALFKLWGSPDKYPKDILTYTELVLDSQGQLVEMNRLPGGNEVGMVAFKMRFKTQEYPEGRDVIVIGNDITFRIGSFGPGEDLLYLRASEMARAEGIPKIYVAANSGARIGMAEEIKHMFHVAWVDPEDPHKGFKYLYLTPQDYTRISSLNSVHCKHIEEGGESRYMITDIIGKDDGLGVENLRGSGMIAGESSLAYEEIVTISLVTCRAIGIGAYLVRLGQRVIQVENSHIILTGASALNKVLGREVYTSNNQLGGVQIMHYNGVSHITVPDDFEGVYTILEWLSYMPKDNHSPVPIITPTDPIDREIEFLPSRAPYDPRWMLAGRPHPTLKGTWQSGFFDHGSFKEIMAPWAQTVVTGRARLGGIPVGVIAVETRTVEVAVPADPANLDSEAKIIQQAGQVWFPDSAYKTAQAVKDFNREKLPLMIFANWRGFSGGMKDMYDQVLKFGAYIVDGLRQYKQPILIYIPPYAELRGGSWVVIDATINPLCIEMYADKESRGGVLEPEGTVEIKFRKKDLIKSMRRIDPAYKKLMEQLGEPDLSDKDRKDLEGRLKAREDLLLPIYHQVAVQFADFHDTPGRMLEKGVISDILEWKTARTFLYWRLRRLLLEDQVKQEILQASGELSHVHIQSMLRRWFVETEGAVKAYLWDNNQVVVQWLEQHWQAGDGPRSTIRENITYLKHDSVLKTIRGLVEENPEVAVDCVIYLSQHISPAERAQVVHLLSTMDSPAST

This test has as its target T1, human acetyl-CoA carboxylase 2 (ACC2) (Homo sapiens, UniProt O00763).
T1 construct: The cDNA encoding amino acids 144 to 2458 of human acetyl-CoA carboxylase 2; made in house; host or cells: Sf9 insect cells (baculovirus, pFastBac1)
The experiment in a line: Acetyl-CoA carboxylase enzyme assay (malonyl-CoA formation by LC/MS/MS). Particulars: recombinant human ACC2 (aa 144-2458); read-out: IC50 ACC2. In kind it is biochemical. The essentials: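 Malonyl-CoA formation was read by LC/MS/MS MRM against a [13C3]-malonyl-CoA internal standard, after acetic acid quench. The enzyme was baculovirus/Sf9-expressed human ACC2 residues 144–2458, given 15 minutes room-temperature compound preincubation in HEPES pH 7.5 buffer with MgCl2, citrate and DTT. Substrate solution held 50 μM acetyl-CoA, 120 μM ATP and 2 mM KHCO3.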
In the case of `COCCN(C(=O)[C@H]1CC[C@H](NS(=O)(=O)c2ccc3[nH]c(-c4ccccc4)nc3c2)CC1)C1CCCCC1` [Example 676, (1r,4R)-N-cyclohexyl-N-(2-methoxyethyl)-4-(2-phenyl-1H-benzo[d]imidazole-5-sulfonamido)cyclohexanecarboxamide], the IC50 was 23 nM. Regarding `C[C@@H](NC(=O)[C@H]1CC[C@H](NS(=O)(=O)c2ccc3c(c2)C(=O)NCC3)CC1)c1ccc(F)cc1` [Example 223, (1r,4R)-N-((R)-1-(4-fluorophenyl)ethyl)-4-(1-oxo-1,2,3,4-tetrahydroisoquinoline-7-sulfonamido)cyclohexanecarboxamide], the IC50 is 205 nM. As for `COc1cc(Nc2nc3cc(S(=O)(=O)Nc4ccc(C(=O)OC(C)C)cc4)ccc3[nH]2)cc(OC)c1OC` [Example 543, isopropyl 4-(2-(3,4,5-trimethoxyphenylamino)-1H-benzo[d]imidazole-5-sulfonamido)benzoate], the IC50 turned out to be 280 nM. As to `[2H]C1([2H])Nc2cc(S(=O)(=O)NC3CCC(C(=O)N[C@H](C)c4ccc(F)cc4)CC3)cnc2NC1([2H])[2H]` (stereo partly drawn) [Example 199, (R)-N-(1-(4-fluorophenyl)ethyl)-4-(2,2,3,3-tetradeuterio-1,2,3,4-tetrahydropyrido[3,2-b]pyrazine-7-sulfonamido)cyclohexanecarboxamide], the IC50 came out at 75 nM. With `C[C@@H](NC(=O)[C@H]1CC[C@H](NS(=O)(=O)c2cnc3c(c2)NCCS3)CC1)c1ccc(F)cc1` [Example 35, (1r,4R)-4-(2,3-dihydro-1H-pyrido[2,3-b][1,4]thiazine-7-sulfonamido)-N—((R)-1-(4-fluorophenyl)ethyl)cyclohexanecarboxamide], the IC50 was found to be 10 nM. With `CCCN(CC1CC1)C(=O)[C@H]1CC[C@H](NS(=O)(=O)c2ccc3[nH]c(-c4ccccc4)nc3c2)CC1` [Example 625, (1r,4r)-N-(cyclopropylmethyl)-4-(2-phenyl-1H-benzo[d]imidole-5-sulfonamido)-N-propylcyclohexanecarboxamide] the figure was 80 nM.

For the molecule `Cn1c(-c2ccccc2)cc2ccc(S(=O)(=O)N[C@H]3CC[C@H](C(=O)N4CC(=O)NC[C@@H]4c4ccccc4)CC3)cc21` [Example 354, 1-methyl-N-((1S,4r)-4-((S)-5-oxo-2-phenylpiperazine-1-carbonyl)cyclohexyl)-2-phenyl-1H-indole-6-sulfonamide], the IC50 is < 10 nM.

On to `CC(=O)c1ccc(-c2nc3ccc(S(=O)(=O)Nc4ccc(C(=O)OC(C)C)cc4)cc3[nH]2)cc1` [Example 495, isopropyl 4-(2-(4-acetylphenyl)-1H-benzo[d]imidazole-6-sulfonamido)benzoate], for which the IC50 was determined as 990 nM. With `C[C@@H](NC(=O)[C@H]1CC[C@H](NS(=O)(=O)c2ccc3cc(C4CC4)[nH]c3c2)CC1)c1ccccn1` [Example 294, (1r,4R)-4-(2-cyclopropyl-1H-indole-6-sulfonamido)-N-((R)-1-(pyridin-2-yl)ethyl)cyclohexanecarboxamide] the figure was 279 nM; with `CCOc1ccc2cc(S(=O)(=O)N[C@H]3CC[C@H](C(=O)N[C@H](C)c4ccccn4)CC3)ccc2n1` [Example 82, (1r,4R)-4-(2-ethoxyquinoline-6-sulfonamido)-N-((R)-1-(pyridin-2-yl)ethyl)cyclohexanecarboxamide], 845 nM; with `CC(C)OC(=O)c1ccc(NS(=O)(=O)c2ccc3nc(-c4ccccc4F)[nH]c3c2)cc1` [Example 502, isopropyl 4-(2-(2-fluorophenyl)-1H-benzo[d]imidazole-6-sulfonamido)benzoate], 1280 nM.

In the case of `C[C@@H](NC(=O)[C@H]1CC[C@H](NS(=O)(=O)c2ccc3nc(N4CCNCC4)ccc3c2)CC1)c1ccc(F)cc1` [Example 238, (1r,4R)-N-((R)-1-(4-fluorophenyl)ethyl)-4-(2-(piperazin-1-yl)quinoline-6-sulfonamido)cyclohexanecarboxamide], the half-inhibitory concentration (IC50) was determined as 65 nM. Turning to `Cn1c(C2CC2)cc2ccc(S(=O)(=O)N[C@H]3CC[C@H](C(=O)N[C@@H](CO)C4CC4)CC3)cc21` [Example 446, (1r,4R)-4-(2-cyclopropyl-1-methyl-1H-indole-6-sulfonamido)-N-((R)-1-cyclopropyl-2-hydroxyethyl)cyclohexanecarboxamide], the IC50 was 365 nM. For the molecule `CC(C)(C)OC(=O)N1CCN(C(=O)[C@H]2CC[C@H](NS(=O)(=O)c3ccc4oc5ccccc5c4c3)CC2)[C@@H](c2ccccc2)C1` [Example 255, (S)-tert-butyl 4-((1r,4S)-4-(dibenzo[b,d]furan-2-sulfonamido)cyclohexanecarbonyl)-3-phenylpiperazine-1-carboxylate], the IC50 came out at 15 nM. Regarding `O=C(N[C@H](CO)c1ccccc1)[C@H]1CC[C@H](NS(=O)(=O)c2ccc3[nH]c(-c4ccccc4)nc3c2)CC1` [Example 579, (1r,4S)-N-((S)-2-hydroxy-1-phenylethyl)-4-(2-phenyl-1H-benzo[d]imidazole-5-sulfonamido)cyclohexanecarboxamide], the concentration for half-maximal inhibition (IC50) is 10 nM. Take `C[C@@H](NC(=O)[C@H]1CC[C@H](NS(=O)(=O)c2ccc3[nH]c(-c4ccc(CN5CCOCC5)cc4)nc3c2)CC1)c1ccccc1` [Example 577, (1r,4R)-4-(2-(4-(morpholinomethyl)phenyl)-1H-benzo[d]imidazole-5-surfonamido)-N-((R)-1-phenylethyl)cyclohexanecarboxamide]: the IC50 worked out at 15 nM. With `C[C@@H](NC(=O)[C@H]1CC[C@H](NS(=O)(=O)c2ccc3nc(-c4ccccc4)ccc3c2)CC1)c1ccc(F)cc1` [Example 202, (1r,4R)-N-((R)-1-(4-fluorophenyl)ethyl)-4-(2-phenylquinoline-6-sulfonamido)cyclohexanecarboxamide] the figure was 20 nM; with `CC(NC(=O)[C@H]1CC[C@H](NS(=O)(=O)c2ccc3c(c2)N(C)CCC3)CC1)c1ccncc1` (some centres unmarked) [Example 161, (1r,4r)-4-(1-methyl-1,2,3,4-tetrahydroquinoline-7-sulfonamido)-N-(1-(pyridin-4-yl)ethyl)cyclohexanecarboxamide], 340 nM.

Turning to `C[C@@H](NC(=O)[C@H]1CC[C@H](NS(=O)(=O)c2ccc3[nH]c(-c4ccncc4)nc3c2)CC1)c1ccccc1` [Example 280, (1r,4R)-N-((R)-1-phenylethyl)-4-(2-(pyridin-4-yl)-1H-benzo[d]imidazole-5-sulfonamido)cyclohexanecarboxamide], the IC50 came out at 12 nM. Turning to `CC(NC(=O)[C@H]1CC[C@H](NS(=O)(=O)c2ccc3[nH]c(-c4cccnc4)cc3c2)CC1)c1ccncc1` (some centres unmarked) [Example 283, (1r,4r)-4-(2-(pyridin-3-yl)-1H-indole-5-sulfonamido)-N-(1-(pyridin-4-yl)ethyl)cyclohexanecarboxamide], the half-inhibitory concentration (IC50) turned out to be 256 nM. As for `C[C@@H](NC(=O)[C@H]1CC[C@H](NS(=O)(=O)c2ccc3[nH]c(-c4ccccc4)nc3c2)CC1)C1CCCCC1` [Example 121, (1r,4R)-N-((R)-1-cyclohexylethyl)-4-(2-phenyl-1H-benzo[d]imidazole-5-sulfonamido)cyclohexanecarboxamide], the IC50 worked out at 17 nM. Then `Cc1cc(CO)ccc1-c1cc2ccc(S(=O)(=O)N[C@H]3CC[C@H](C(=O)N4CCOCC4)CC3)cc2[nH]1` [Example 308, 2-(4-(hydroxymethyl)-2-methylphenyl)-N-((1r,4r)-4-(morpholine-4-carbonyl)cyclohexyl)-1H-indole-6-sulfonamide], with 60 nM.

`CC(C)(C)OC(=O)c1ccc(NS(=O)(=O)c2ccc3[nH]c(-c4ccccc4)nc3c2)cc1` [Example 489, tert-butyl 4-(2-phenyl-1H-benzo[d]imidazole-5-sulfonamido)benzoate]: the IC50 turned out to be 1110 nM. For the molecule `CC(NC(=O)[C@H]1CC[C@H](NS(=O)(=O)c2ccc3ccccc3c2)CC1)c1cccnc1` (some centres unmarked) [Example 680, (1r,4r)-4-(naphthalene-2-sulfonamido)-N-(1-(pyridin-3-yl)ethyl)cyclohexanecarboxamide], the IC50 stood at 240 nM. Take `CC(C)(C)OC(=O)N1CCN(C(=O)[C@H]2CC[C@H](NS(=O)(=O)c3ccc4c(c3)NCCC4)CC2)C(c2ccccc2)C1` (some centres unmarked) [Example 174, tert-butyl 3-phenyl-4-((1r,4r)-4-(1,2,3,4-tetrahydroquinoline-7-sulfonamido)cyclohexanecarbonyl)piperazine-1-carboxylate]: the IC50 was 45 nM. `O=C([C@H]1CC[C@H](NS(=O)(=O)c2cnc3c(c2)NCCN3)CC1)N1CCNC[C@@H]1c1ccccc1` [Example 191, N-((1S,4r)-4-((S)-2-phenylpiperazine-1-carbonyl)cyclohexyl)-1,2,3,4-tetrahydropyrido[3,2-b]pyrazine-7-sulfonamide]: the concentration for half-maximal inhibition (IC50) turned out to be 150 nM. With `Cn1c(-c2ccccc2)cc2ccc(S(=O)(=O)N[C@H]3CC[C@H](C(=O)N[C@H](CO)c4ccccc4)CC3)cc21` [Example 353, (1r,4S)-N-((S)-2-hydroxy-1-phenylethyl)-4-(1-methyl-2-phenyl-1H-indole-6-sulfonamido)cyclohexanecarboxamide] the figure was < 10 nM; with `CCCCNC(=O)[C@H]1CC[C@H](NS(=O)(=O)c2ccc3[nH]c(-c4ccccc4)nc3c2)CC1` [Example 633, (1r,4r)-N-butyl-4-(2-phenyl-1H-benzo[d]imidazole-5-sulfonamido)cyclohexanecarboxamide], 1170 nM. For `CC(C)(C)c1nnc([C@H]2CC[C@H](NS(=O)(=O)c3ccc4[nH]c(Nc5ccccc5)nc4c3)CC2)o1` [Example 597, N-((1r,4r)-4-(5-tert-butyl-1,3,4-oxadiazol-2-yl)cyclohexyl)-2-(phenylamine)-1H-benzo[d]imidazole-5-sulfonamide], the IC50 is 162 nM.
